Experimental data as given in ChEMBL document CHEMBL1201862, “PubChem BioAssay data set” (2004).
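96-well plates; 48 h exposure; 5 concentrations. Endpoints by linear interpolation between flanking doses. Not reached: highest tested concentration assigned. GI50 = concentration required for 50% inhibition of growth.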 Activity calls are given as the source filed them. No stated cut-off is given here; in the data, active = GI50 up to about 1.1 µM and inactive = higher.

Columns and labels:
Experiment in all cases: growth of human tumour cells (NCI), 48 h
SN12C = system: SN12C
KM12 = system: KM12
MDA-MB-435 = system: MDA-MB-435
A498 = system: A498
U-251 = system: U-251
HOP-62 = system: HOP-62
OVCAR-4 = system: OVCAR-4
786-0 = system: 786-0
SNB-19 = system: SNB-19
SF-268 = system: SF-268
M14 = system: M14
A549 = system: A549
UACC-257 = system: UACC-257
HOP-92 = system: HOP-92
SW-620 = system: SW-620
EKVX = system: EKVX
SF-295 = system: SF-295
OVCAR-8 = system: OVCAR-8
OVCAR-5 = system: OVCAR-5

| SMILES | GI50 (SN12C) | GI50 (KM12) | GI50 (MDA-MB-435) | GI50 (A498) | GI50 (U-251) | GI50 (HOP-62) | GI50 (OVCAR-4) | GI50 (786-0) | GI50 (SNB-19) | GI50 (SF-268) | GI50 (M14) | GI50 (A549) | GI50 (UACC-257) | GI50 (HOP-92) | GI50 (SW-620) | GI50 (EKVX) | GI50 (SF-295) | GI50 (OVCAR-8) | GI50 (OVCAR-5) |
| --- | --- | --- | --- | --- | --- | --- | --- | --- | --- | --- | --- | --- | --- | --- | --- | --- | --- | --- | --- |
| CCN(CC)c1ccc2cc(C(N)=O)/c(=N/c3ccc(F)cc3)oc2c1 | 45.4 µM (inactive) | 17.6 µM (inactive) | > 100 µM (inactive) | 39.4 µM (inactive) | 38.5 µM (inactive) | 28 µM (inactive) | 41.3 µM (inactive) | 14.8 µM (inactive) | 25.5 µM (inactive) | 39.5 µM (inactive) | > 100 µM (inactive) | 91 µM (inactive) | > 100 µM (inactive) | 18.7 µM (inactive) | > 100 µM (inactive) | 81.5 µM (inactive) | 10.3 µM (inactive) | 22.8 µM (inactive) | > 100 µM (inactive) |
| NC(=O)c1ccc(S(=O)(=NS(=O)(=O)c2ccccc2)c2ccc(C(N)=O)cc2)cc1 | > 100 µM (inactive) | > 100 µM (inactive) | > 100 µM (inactive) | > 100 µM (inactive) | > 100 µM (inactive) | > 100 µM (inactive) | > 100 µM (inactive) | > 100 µM (inactive) | > 100 µM (inactive) | > 100 µM (inactive) | > 100 µM (inactive) | > 100 µM (inactive) | > 100 µM (inactive) | > 100 µM (inactive) | > 100 µM (inactive) | > 100 µM (inactive) | > 100 µM (inactive) | > 100 µM (inactive) | > 100 µM (inactive) |
| COc1ccc(N(C(=O)OC(C)(C)C)[C@@H]2C(C)=C[C@H]([S@@+]([O-])c3ccc(C)cc3)[C@@H]3C(=O)N(C)C(=O)[C@@H]32)cc1 | 11 µM (inactive) | 11.6 µM (inactive) | 15 µM (inactive) | 10.1 µM (inactive) | 14 µM (inactive) | 24.4 µM (inactive) | 16.5 µM (inactive) | 18.1 µM (inactive) | 17.5 µM (inactive) | 12.6 µM (inactive) | 32.2 µM (inactive) | 19.3 µM (inactive) | 17.5 µM (inactive) | 17.7 µM (inactive) | 20.9 µM (inactive) | 2.13 µM (inactive) | 15.8 µM (inactive) | 20.5 µM (inactive) | 21.9 µM (inactive) |
| CN(C)c1ccc(/C=C(\NC(=O)c2ccccc2)C(=O)Nc2ccccc2C(=O)NCc2ccccc2)cc1 | > 100 µM (inactive) | 58.5 µM (inactive) | > 100 µM (inactive) | > 100 µM (inactive) | 46.8 µM (inactive) | 31.4 µM (inactive) | 58.2 µM (inactive) | > 100 µM (inactive) | 85.5 µM (inactive) | > 100 µM (inactive) | 77.6 µM (inactive) | > 100 µM (inactive) | 36.1 µM (inactive) | > 100 µM (inactive) | > 100 µM (inactive) | > 100 µM (inactive) | > 100 µM (inactive) | 59.4 µM (inactive) | > 100 µM (inactive) |
| CN(C)c1ccc(C(=N/N=C2\C(=O)Nc3ccccc32)c2ccc(N(C)C)cc2)cc1 | 1.67 µM (inactive) | 0.278 µM (active) | 0.0214 µM (active) | 1.96 µM (inactive) | 0.49 µM (active) | 0.933 µM (active) | 1.94 µM (inactive) | 0.859 µM (active) | 1.22 µM (inactive) | 0.942 µM (active) | 0.348 µM (active) | 0.625 µM (active) | 24.5 µM (inactive) | 12.8 µM (inactive) | 0.247 µM (active) | 5.15 µM (inactive) | 0.308 µM (active) | 1 µM (active) | 3.72 µM (inactive) |
| C=CCN1C(=O)/C(=C/c2ccc(C)cc2)NC1=S | > 100 µM (inactive) | 97.7 µM (inactive) | 76.6 µM (inactive) | 47 µM (inactive) | > 100 µM (inactive) | > 100 µM (inactive) | 57 µM (inactive) | > 100 µM (inactive) | > 100 µM (inactive) | > 100 µM (inactive) | 87.7 µM (inactive) | 76.4 µM (inactive) | 43.6 µM (inactive) | 59.3 µM (inactive) | > 100 µM (inactive) | 37.8 µM (inactive) | 75 µM (inactive) | > 100 µM (inactive) | > 100 µM (inactive) |
